10 compounds from ChEMBL document CHEMBL5291721, “A preclinical secondary pharmacology resource illuminates target-adverse drug reaction associations of marketed drugs” (Nat Commun, 2023) can be followed below.

The target of one assay is D(1A) dopamine receptor (Homo sapiens, UniProt P21728). It is filed as functional, cell-based.
The target of the next assay is Histamine H2 receptor (Homo sapiens, UniProt P25021). It is filed as functional, cell-based.
The target of assay [1] is 5-hydroxytryptamine receptor 2B (Homo sapiens, UniProt P41595). It is filed as functional, cell-based.
The target in assay [2] is Gamma-aminobutyric acid receptor subunit alpha-1 (Rattus norvegicus, UniProt P62813). It is filed as functional.
The target of assay [3] is T1, Alpha-1A adrenergic receptor (Homo sapiens, UniProt P35348).
T1 sequence (P35348 whole entry): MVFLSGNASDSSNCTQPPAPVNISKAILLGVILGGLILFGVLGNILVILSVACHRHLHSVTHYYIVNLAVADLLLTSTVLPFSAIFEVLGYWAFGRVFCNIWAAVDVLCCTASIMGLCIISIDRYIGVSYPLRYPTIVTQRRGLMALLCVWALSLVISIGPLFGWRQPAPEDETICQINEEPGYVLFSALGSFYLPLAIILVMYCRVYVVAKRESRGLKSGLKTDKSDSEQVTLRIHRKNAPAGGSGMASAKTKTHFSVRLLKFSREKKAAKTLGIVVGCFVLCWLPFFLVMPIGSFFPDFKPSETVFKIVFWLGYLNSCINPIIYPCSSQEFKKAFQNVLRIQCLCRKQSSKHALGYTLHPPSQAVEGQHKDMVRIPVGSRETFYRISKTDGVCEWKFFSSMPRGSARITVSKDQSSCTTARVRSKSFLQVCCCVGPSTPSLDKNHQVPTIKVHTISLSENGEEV
The format is functional, cell-based.

The target in assay [4] is T2, Muscarinic acetylcholine receptor M2 (Homo sapiens, UniProt P08172).
T2 sequence (P08172 whole entry): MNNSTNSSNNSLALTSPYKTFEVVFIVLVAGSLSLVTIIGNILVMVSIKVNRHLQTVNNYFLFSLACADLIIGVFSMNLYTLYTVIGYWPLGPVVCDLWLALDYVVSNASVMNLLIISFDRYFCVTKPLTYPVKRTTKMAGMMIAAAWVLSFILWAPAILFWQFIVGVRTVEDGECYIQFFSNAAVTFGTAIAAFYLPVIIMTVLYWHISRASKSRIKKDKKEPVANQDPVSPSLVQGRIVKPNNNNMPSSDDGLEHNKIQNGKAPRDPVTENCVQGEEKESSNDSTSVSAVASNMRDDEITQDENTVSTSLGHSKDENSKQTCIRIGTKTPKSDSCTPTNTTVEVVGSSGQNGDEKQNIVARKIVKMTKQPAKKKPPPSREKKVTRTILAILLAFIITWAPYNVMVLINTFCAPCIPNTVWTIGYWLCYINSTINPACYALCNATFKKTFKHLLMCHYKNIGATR
It is filed as functional, cell-based.

The target in assay [5] is T1, Alpha-1A adrenergic receptor. The format is functional, cell-based. The source holds these as a separate data set.
The target in assay [6] is T3, Amine oxidase [flavin-containing] A (Homo sapiens, UniProt P21397).
T3 sequence (P21397 whole entry): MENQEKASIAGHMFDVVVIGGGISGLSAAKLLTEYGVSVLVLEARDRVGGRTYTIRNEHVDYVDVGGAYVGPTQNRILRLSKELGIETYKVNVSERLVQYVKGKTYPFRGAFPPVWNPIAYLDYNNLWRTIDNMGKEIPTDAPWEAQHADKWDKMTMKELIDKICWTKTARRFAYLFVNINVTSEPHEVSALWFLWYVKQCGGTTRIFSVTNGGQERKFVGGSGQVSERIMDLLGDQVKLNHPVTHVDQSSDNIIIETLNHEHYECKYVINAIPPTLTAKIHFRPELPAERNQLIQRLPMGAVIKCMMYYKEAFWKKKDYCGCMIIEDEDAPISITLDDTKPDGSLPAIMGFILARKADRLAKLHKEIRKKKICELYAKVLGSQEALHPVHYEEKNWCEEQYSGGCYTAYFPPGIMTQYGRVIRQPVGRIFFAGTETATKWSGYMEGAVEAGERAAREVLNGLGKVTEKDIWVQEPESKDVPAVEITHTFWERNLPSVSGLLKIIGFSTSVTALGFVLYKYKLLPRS
It is filed as functional.

Assay [7] addresses T4, 5-hydroxytryptamine receptor 2C (Homo sapiens, UniProt P28335).
T4 sequence (P28335 whole entry): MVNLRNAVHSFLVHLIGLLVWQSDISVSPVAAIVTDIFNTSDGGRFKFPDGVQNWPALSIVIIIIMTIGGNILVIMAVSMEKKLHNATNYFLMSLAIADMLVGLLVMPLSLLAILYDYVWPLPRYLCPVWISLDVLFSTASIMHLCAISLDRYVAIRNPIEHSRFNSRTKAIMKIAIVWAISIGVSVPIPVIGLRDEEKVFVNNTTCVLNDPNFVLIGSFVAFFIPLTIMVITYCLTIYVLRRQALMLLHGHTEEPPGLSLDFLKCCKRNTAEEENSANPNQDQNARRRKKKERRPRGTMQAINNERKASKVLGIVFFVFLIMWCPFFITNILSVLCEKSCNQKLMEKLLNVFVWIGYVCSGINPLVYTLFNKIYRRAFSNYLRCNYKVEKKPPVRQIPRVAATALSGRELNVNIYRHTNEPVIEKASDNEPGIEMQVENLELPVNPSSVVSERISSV

The target in assay [8] is T5, Muscarinic acetylcholine receptor M1 (Homo sapiens, UniProt P11229).
T5 sequence (P11229 whole entry): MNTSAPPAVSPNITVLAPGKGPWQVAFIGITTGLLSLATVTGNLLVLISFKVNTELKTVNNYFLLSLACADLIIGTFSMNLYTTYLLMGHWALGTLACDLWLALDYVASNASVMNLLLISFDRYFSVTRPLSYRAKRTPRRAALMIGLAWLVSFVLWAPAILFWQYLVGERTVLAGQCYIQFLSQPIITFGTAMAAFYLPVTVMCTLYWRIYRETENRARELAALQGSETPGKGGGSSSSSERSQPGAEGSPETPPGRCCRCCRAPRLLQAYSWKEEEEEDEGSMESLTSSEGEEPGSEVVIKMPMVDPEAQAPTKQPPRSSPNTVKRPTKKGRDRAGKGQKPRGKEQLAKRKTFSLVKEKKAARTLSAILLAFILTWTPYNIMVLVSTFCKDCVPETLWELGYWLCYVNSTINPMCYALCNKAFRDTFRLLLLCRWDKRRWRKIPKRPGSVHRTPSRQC
The format is functional, cell-based.

The next assay addresses Adenosine receptor A2a (Homo sapiens, UniProt P29274).
Note: assay procedure not described here.

Sequence of D(1A) dopamine receptor (P21728 whole entry): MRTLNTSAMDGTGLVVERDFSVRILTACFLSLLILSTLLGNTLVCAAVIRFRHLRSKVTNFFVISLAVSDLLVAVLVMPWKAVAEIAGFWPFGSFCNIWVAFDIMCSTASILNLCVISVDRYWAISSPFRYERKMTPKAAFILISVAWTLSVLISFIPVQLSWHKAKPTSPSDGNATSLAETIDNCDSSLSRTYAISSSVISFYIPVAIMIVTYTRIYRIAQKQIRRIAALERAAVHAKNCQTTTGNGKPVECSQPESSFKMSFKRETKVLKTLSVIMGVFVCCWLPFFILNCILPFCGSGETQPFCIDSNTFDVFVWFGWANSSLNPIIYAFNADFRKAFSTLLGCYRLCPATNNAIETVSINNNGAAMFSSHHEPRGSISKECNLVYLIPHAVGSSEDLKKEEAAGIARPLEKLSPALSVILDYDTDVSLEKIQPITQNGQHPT
Sequence of Adenosine receptor A2a (P29274 whole entry): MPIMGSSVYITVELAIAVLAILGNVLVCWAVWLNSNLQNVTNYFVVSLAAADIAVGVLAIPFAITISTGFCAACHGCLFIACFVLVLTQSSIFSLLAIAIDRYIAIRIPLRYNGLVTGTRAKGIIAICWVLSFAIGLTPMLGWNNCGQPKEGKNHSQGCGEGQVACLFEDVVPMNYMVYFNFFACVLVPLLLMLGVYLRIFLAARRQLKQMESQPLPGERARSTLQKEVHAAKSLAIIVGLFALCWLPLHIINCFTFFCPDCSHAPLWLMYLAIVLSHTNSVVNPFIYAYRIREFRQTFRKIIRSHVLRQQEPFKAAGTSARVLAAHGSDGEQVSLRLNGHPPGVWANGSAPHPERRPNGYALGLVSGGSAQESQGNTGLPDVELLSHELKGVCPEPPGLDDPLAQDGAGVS
Sequence of 5-hydroxytryptamine receptor 2B (P41595 whole entry): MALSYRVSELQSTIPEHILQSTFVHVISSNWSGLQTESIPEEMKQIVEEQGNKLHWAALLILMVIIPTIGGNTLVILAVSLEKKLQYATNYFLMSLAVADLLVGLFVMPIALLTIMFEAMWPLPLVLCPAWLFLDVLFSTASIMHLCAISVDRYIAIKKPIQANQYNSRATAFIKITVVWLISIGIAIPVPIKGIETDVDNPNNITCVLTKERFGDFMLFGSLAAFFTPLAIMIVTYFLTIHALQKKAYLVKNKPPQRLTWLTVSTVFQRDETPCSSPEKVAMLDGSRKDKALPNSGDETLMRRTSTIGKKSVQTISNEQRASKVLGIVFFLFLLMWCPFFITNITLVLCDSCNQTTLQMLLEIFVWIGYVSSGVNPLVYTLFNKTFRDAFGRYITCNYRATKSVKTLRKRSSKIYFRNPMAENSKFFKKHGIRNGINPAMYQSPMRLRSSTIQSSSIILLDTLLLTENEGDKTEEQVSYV
Sequence of Gamma-aminobutyric acid receptor subunit alpha-1 (P62813 whole entry): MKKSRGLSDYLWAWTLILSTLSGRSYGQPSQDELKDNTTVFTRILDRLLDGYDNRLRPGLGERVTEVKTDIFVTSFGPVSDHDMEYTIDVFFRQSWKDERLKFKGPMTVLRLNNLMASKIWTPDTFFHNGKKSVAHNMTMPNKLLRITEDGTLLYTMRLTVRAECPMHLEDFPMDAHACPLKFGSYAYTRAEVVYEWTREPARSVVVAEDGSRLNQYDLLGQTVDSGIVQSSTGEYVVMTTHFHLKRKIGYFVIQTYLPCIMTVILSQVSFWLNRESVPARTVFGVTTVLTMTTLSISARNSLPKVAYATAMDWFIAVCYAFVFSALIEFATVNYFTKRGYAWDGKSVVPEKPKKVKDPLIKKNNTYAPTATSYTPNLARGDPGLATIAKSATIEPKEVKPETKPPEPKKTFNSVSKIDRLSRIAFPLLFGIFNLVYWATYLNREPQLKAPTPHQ
Sequence of Histamine H2 receptor (P25021 whole entry): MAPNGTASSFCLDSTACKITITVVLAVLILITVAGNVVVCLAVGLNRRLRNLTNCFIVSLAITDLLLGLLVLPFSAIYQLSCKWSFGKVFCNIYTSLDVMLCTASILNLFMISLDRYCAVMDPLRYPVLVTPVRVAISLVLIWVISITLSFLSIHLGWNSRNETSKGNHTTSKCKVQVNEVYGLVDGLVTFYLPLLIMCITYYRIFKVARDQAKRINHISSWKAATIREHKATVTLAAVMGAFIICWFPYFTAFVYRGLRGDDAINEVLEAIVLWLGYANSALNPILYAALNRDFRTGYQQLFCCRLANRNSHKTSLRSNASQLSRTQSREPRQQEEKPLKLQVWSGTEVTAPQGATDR

Regarding `C[N+](C)(C)CCOP(=O)(O)OP(=O)([O-])OC[C@H]1O[C@@H](n2ccc(N)nc2=O)[C@H](O)[C@@H]1O` [CITICOLINE], the AC50 (at D(1A) dopamine receptor; at Histamine H2 receptor; in assay [1]; in [2]; in assay [3]; in [4]) was above 30 µM in each case. Moreover, the concentration at half-maximal activity (AC50) in assay [5], in assay [6], in [7] and in [8] was above 30 µM throughout.

In the case of `O=C(O)Cc1ccccc1Oc1ccc(Cl)cc1Cl` [FENCLOFENAC], the AC50 is above 30 µM on D(1A) dopamine receptor; above 10 µM at Histamine H2 receptor; above 10 µM in assay [1]; above 10 µM in assay [2]; above 30 µM on Adenosine receptor A2a; above 30 µM in [3]. Moreover, the AC50 in assay [4] was above 10 µM; in assay [5], above 30 µM; in assay [6], above 10 µM; in assay [7], above 30 µM; in assay [8], above 30 µM.

As for `COc1ccccc1OC1(C)OC(=O)c2ccccc2O1` (stereo not drawn) [GUAIMESAL], the AC50 (at Adenosine receptor A2a; in assay [5]; in assay [8]) was above 30 µM in each case.

In the case of `COc1cc(C(C)=O)ccc1OCCCN1CCC(c2noc3cc(F)ccc23)CC1` [ILOPERIDONE], the AC50 is above 30 µM on D(1A) dopamine receptor; 1.8 µM in assay [1]; 12.9 µM in assay [2]; above 30 µM at Adenosine receptor A2a; above 30 µM in assay [3]; above 30 µM in assay [4]. Further, the AC50 in assay [5] was 0.003 µM; in assay [6] it was above 30 µM; in [7] it was 0.803 µM; in assay [8] it was above 10 µM.

Turning to `Nc1cccc2c1C(=O)N(C1CCC(=O)NC1=O)C2=O` (stereo not drawn) [POMALIDOMIDE], the AC50 in assay [5] and in [8] was above 30 µM throughout.

Take `C[Se]CC[C@H](N)C(=O)O` [SELENOMETHIONINE]: the AC50 in [5] and in assay [8] was above 30 µM each time.

For the compound `Cc1ccsc1C(=CCCN1CCC[C@@H](C(=O)O)C1)c1sccc1C` [TIAGABINE], the AC50 in assay [5] and in assay [8] was above 30 µM each time.

Turning to `Cc1ccccc1C(=O)Nc1ccc(C(=O)N2CCCC(O)c3cc(Cl)ccc32)c(C)c1` (stereo not drawn) [TOLVAPTAN], the AC50 in assay [5] and in [8] was above 30 µM in each case.

Turning to `CC[C@]12CCCN3CCc4c(n(c5ccccc45)[C@@](O)(C(=O)OC)C1)[C@@H]32` [VINCAMINE], the AC50 in assay [5] and in assay [8] was above 30 µM throughout.

`O=C1Cc2cc(CCN3CCN(c4nsc5ccccc45)CC3)c(Cl)cc2N1` [ZIPRASIDONE]: the AC50 at Histamine H2 receptor is above 10 µM; in [1], 0.229 µM; in [2], above 10 µM; on Adenosine receptor A2a it was above 30 µM; in [3], above 30 µM; in assay [4], above 10 µM. The concentration at half-maximal activity (AC50) was 0.0179 µM in [5], above 10 µM in [6] and above 30 µM in [8].

The AC50 is the concentration at which the activity in the assay is half-maximal. Low readings indicate activity at low concentration, high ones activity only at high concentration.
